{"source": "patent US7410963B2", "about": "“Benzo-1,4-diazepin-2-one derivatives as phosphodiesterase PDE2 inhibitors, preparation and therapeutic use thereof” (VIA Pharmaceuticals, Inc., priority 2003, dated 2008)", "data": [{"molecular_target": "T1, PDE2 (Bos taurus, UniProt P14099)", "T1 sequence (P14099 1-921)": "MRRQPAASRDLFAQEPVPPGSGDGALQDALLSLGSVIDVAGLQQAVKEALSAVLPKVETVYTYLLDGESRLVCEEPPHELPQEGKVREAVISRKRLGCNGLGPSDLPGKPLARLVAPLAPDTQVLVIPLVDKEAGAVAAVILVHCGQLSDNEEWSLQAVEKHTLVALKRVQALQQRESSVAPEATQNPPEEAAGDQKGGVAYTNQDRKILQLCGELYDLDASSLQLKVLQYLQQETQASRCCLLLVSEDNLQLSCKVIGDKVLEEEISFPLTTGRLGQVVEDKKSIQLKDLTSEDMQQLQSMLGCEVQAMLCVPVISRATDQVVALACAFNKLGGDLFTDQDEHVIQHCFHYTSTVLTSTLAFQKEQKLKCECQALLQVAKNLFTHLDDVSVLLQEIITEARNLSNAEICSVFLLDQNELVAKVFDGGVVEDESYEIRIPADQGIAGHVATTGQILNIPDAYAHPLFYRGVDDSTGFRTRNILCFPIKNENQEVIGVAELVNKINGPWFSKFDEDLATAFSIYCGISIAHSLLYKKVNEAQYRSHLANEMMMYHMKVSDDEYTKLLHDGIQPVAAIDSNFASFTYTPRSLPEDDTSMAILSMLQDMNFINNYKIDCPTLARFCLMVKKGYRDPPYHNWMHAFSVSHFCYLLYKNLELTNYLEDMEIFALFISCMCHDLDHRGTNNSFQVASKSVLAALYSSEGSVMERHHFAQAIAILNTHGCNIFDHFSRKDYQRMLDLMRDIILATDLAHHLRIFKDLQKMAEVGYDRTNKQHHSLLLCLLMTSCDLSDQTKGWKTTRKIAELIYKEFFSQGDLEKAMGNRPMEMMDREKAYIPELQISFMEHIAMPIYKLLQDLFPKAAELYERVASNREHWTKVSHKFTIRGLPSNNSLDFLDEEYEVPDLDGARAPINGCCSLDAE", "assay": "Radioenzymatic phosphodiesterase assay: PDE2 inhibition", "format": "biochemical, bovine", "details": "Table 1; 10 μM test compound", "protocol": "(§1) Nucleoside radioactivity was determined by liquid scintillation.", "units": {"PDE2 percentage of inhibition at 10 μM": "%"}, "values": [{"smiles": "COc1ccc(-c2ccc3c(c2)C(c2cccc(C(N)=O)c2)=NCC(=O)N3C)c(OC)c1", "note": "[Example 33, 3-[7-(2,4-Dimethoxy-phenyl)-1-methyl-2-oxo-2,3-dihydro-1H-benzo[e][1.4]diazepin-5-yl]-benzamide]", "PDE2 percentage of inhibition at 10 μM": 99}, {"smiles": "COc1cc2c(cc1-c1ccc(C(N)=O)cc1)C(c1cccc(C(N)=O)c1)=NCC(=O)N2", "note": "[Example 34, 3-[8-Methoxy-7-(4-benzamide)-2-oxo-2,3-dihydro-1H-benzo[e][1,4]diazepin-5-yl]-benzamide]", "PDE2 percentage of inhibition at 10 μM": 98}]}, {"molecular_target": "T1, PDE2", "assay": "Radioenzymatic phosphodiesterase assay: PDE2 inhibition", "format": "biochemical, bovine", "details": "Table 1; 10 μM test compound; read-out: PDE2 percentage of inhibition at 10 μM", "protocol": "as §1", "units": {"inhibition at 10 µM": "%"}, "values": [{"smiles": "COc1ccc(-c2cc3c(cc2OC)N(C)C(=O)CN=C3c2cccc(C#N)c2)cc1", "note": "[Example 4, 3-[8-Methoxy-7-(4-methoxy-phenyl)-1-methyl-2-oxo-2,3-dihydro-1H-benzo[e][1,4]diazepin-5-yl]-benzonitrile]", "inhibition at 10 µM": 97}, {"smiles": "COc1cc2c(cc1-c1ccccc1Cl)C(c1cccc(C#N)c1)=NCC(=O)N2C", "note": "[Example 5, 3-[7-(2-Chloro-phenyl)-8-methoxy-1-methyl-2-oxo-2,3-dihydro-1H-benzo[e][1,4]diazepin-5-yl]-benzonitrile]", "inhibition at 10 µM": 98}, {"smiles": "COc1cc2c(cc1-c1ccco1)C(c1cccc(C#N)c1)=NCC(=O)N2C", "note": "[Example 8, 3-(7-Furan-2-yl-8-methoxy-1-methyl-2-oxo-2,3-dihydro-1H-benzo[e][1,4]diazepin-5-yl)-benzonitrile]", "inhibition at 10 µM": 47}, {"smiles": "CN1C(=O)CN=C(c2cccc(C=O)c2)c2cc(-c3ccccc3)ccc21", "note": "[Example 9, 3-(1-Methyl-2-oxo-7-phenyl-2,3-dihydro-1H-benzo[e][1,4]diazepin-5-yl)-benzaldehyde]", "inhibition at 10 µM": 84}, {"smiles": "COc1ccccc1-c1cc2c(cc1OC)NC(=O)CN=C2c1cccc(C#N)c1", "note": "[Example 10, 3-[8-Methoxy-7-(2-methoxy-phenyl)-2-oxo-2,3-dihydro-1H-benzo[e][1,4]diazepin-5-yl]-benzonitrile]", "inhibition at 10 µM": 94}, {"smiles": "COc1ccccc1-c1ccc2c(c1)C(c1cccc(C#N)c1)=NCC(=O)N2C", "note": "[Example 12, 3-[7-(2-Methoxy-phenyl)-1-methyl-2-oxo-2,3-dihydro-1H-benzo[e][1,4]diazepin-5-yl]-benzonitrile]", "inhibition at 10 µM": 40}, {"smiles": "COc1cccc(-c2ccc3c(c2)C(c2cccc(C#N)c2)=NCC(=O)N3C)c1", "note": "[Example 13, 3-[7-(3-Methoxy-phenyl)-1-methyl-2-oxo-2,3-dihydro-1H-benzo[e][1,4]diazepin-5-yl]-benzonitrile]", "inhibition at 10 µM": 91}, {"smiles": "COc1ccc(-c2ccc3c(c2)C(c2cccc(C#N)c2)=NCC(=O)N3C)cc1", "note": "[Example 14, 3-[7-(4-Methoxy-phenyl)-1-methyl-2-oxo-2,3-dihydro-1H-benzo[e][1,4]diazepin-5-yl]-benzonitrile]", "inhibition at 10 µM": 92}, {"smiles": "COc1cccc(OC)c1-c1ccc2c(c1)C(c1cccc(C#N)c1)=NCC(=O)N2C", "note": "[Example 16, 3-[7-(2,6-Dimethoxy-phenyl)-1-methyl-2-oxo-2,3-dihydro-1H-benzo[e][1,4]diazepin-5-yl]-benzonitrile]", "inhibition at 10 µM": 100}, {"smiles": "CCOc1cc2c(cc1-c1ccccc1)C(c1ccccc1)=NCC(=O)N2CC", "note": "[Example 18, 8-Ethoxy-1-ethyl-5,7-diphenyl-1,3-dihydro-benzo[e][1,4]diazepin-2-one]", "inhibition at 10 µM": 27}, {"smiles": "COc1cc2c(cc1-c1ccc(F)cc1)C(c1cccc(C(N)=O)c1)=NCC(=O)N2C", "note": "[Example 20, 3-[7-(4-Fluoro-phenyl)-8-methoxy-1-methyl-2-oxo-2,3-dihydro-1H-benzo[e][1,4]diazepin-5-yl]-benzamide]", "inhibition at 10 µM": 99}, {"smiles": "COc1cc2c(cc1-c1cccc(Cl)c1)C(c1cccc(C(N)=O)c1)=NCC(=O)N2C", "note": "[Example 24, 3-[7-(3-Chloro-phenyl)-8-methoxy-1-methyl-2-oxo-2,3-dihydro-1H-benzo[e][1,4]diazepin-5-yl]-benzamide]", "inhibition at 10 µM": 98}, {"smiles": "COc1cc2c(cc1-c1ccc(Cl)cc1)C(c1cccc(C(N)=O)c1)=NCC(=O)N2C", "note": "[Example 25, 3-[7-(4-Chloro-phenyl)-8-methoxy-1-methyl-2-oxo-2,3-dihydro-1H-benzo[e][1,4]diazepin-5-yl]-benzamide]", "inhibition at 10 µM": 97}, {"smiles": "COc1cc2c(cc1-c1ccco1)C(c1cccc(C(N)=O)c1)=NCC(=O)N2C", "note": "[Example 26, 3-(7-Furan-2-yl-8-methoxy-1-methyl-2-oxo-2,3-dihydro-1H-benzo[e][1,4]diazepin-5-yl)-benzamide]", "inhibition at 10 µM": 71}, {"smiles": "COc1ccccc1-c1ccc2c(c1)C(c1cccc(C(N)=O)c1)=NCC(=O)N2C", "note": "[Example 28, 3-[7-(2-methoxy-phenyl)-1-methyl-2-oxo-2,3-dihydro-1H-benzo[e][1,4]diazepin-5-yl]-benzamide]", "inhibition at 10 µM": 97}, {"smiles": "COc1cccc(-c2ccc3c(c2)C(c2cccc(C(N)=O)c2)=NCC(=O)N3C)c1", "note": "[Example 29, 3-[7-(3-methoxy-phenyl)-1-methyl-2-oxo-2,3-dihydro-1H-benzo[e][1,4]diazepin-5-yl]-benzamide]", "inhibition at 10 µM": 95}, {"smiles": "COc1ccc(-c2ccc3c(c2)C(c2cccc(C(N)=O)c2)=NCC(=O)N3C)cc1", "note": "[Example 30, 3-[7-(4-methoxy-phenyl)-1-methyl-2-oxo-2,3-dihydro-1H-benzo[e][1,4]diazepin-5-yl]-benzamide]", "inhibition at 10 µM": 95}, {"smiles": "COc1ccccc1-c1cc2c(cc1OC)NC(=O)CN=C2c1cccc(C(N)=O)c1", "note": "[Example 36, 3-[8-Methoxy-7-(2-methoxy-phenyl)-2-oxo-2,3-dihydro-1H-benzo[e][1,4]diazepin-5-yl]-benzamide]", "inhibition at 10 µM": 94}]}, {"molecular_target": "T1, PDE2", "assay": "Radioenzymatic phosphodiesterase assay: PDE2 inhibition", "format": "biochemical, bovine", "details": "read-out: PDE2 percentage of inhibition at 10 μM", "protocol": "as §1", "units": {"inhibition at 10 µM": "%"}, "values": [{"smiles": "COc1cc2c(cc1-c1ccccc1)C(c1cccc(C#N)c1)=NCC(=O)N2C", "note": "[Example 1, 3-(8-Methoxy-1-methyl-2-oxo-7-phenyl-2,3-dihydro-1H-benzo[e][1,4]diazepin-5-yl)-benzonitrile]", "inhibition at 10 µM": 83}, {"smiles": "COc1cc2c(cc1-c1ccc(F)cc1)C(c1cccc(C#N)c1)=NCC(=O)N2C", "note": "[Example 2, 3-[7-(4-Fluoro-phenyl)-8-methoxy-1-methyl-2-oxo-2,3-dihydro-1H-benzo[e][1,4]diazepin-5-yl]-benzonitrile]", "inhibition at 10 µM": 97}, {"smiles": "COc1ccccc1-c1cc2c(cc1OC)N(C)C(=O)CN=C2c1cccc(C#N)c1", "note": "[Example 3, 3-[8-Methoxy-7-(2-methoxy-phenyl)-1-methyl-2-oxo-2,3-dihydro-1H-benzo[e][1,4]diazepin-5-yl]-benzonitrile]", "inhibition at 10 µM": 100}, {"smiles": "COc1cc2c(cc1-c1cccc(Cl)c1)C(c1cccc(C#N)c1)=NCC(=O)N2C", "note": "[Example 6, 3-[7-(3-Chloro-phenyl)-8-methoxy-1-methyl-2-oxo-2,3-dihydro-1H-benzo[e][1,4]diazepin-5-yl]-benzonitrile]", "inhibition at 10 µM": 96}, {"smiles": "COc1cc2c(cc1-c1ccc(Cl)cc1)C(c1cccc(C#N)c1)=NCC(=O)N2C", "note": "[Example 7, 3-[7-(4-Chloro-phenyl)-8-methoxy-1-methyl-2-oxo-2,3-dihydro-1H-benzo[e][1,4]diazepin-5-yl]-benzonitrile]", "inhibition at 10 µM": 91}, {"smiles": "CN1C(=O)CN=C(c2cccc(C#N)c2)c2cc(-c3ccccc3)ccc21", "note": "[Example 11, 3-(1-Methyl-2-oxo-7-phenyl-2,3-dihydro-1H-benzo[e][1,4]diazepin-5-yl)-benzonitrile]", "inhibition at 10 µM": 79}, {"smiles": "COc1ccc(OC)c(-c2ccc3c(c2)C(c2cccc(C#N)c2)=NCC(=O)N3C)c1", "note": "[Example 15, 3-[7-(2,5-Dimethoxy-phenyl)-1-methyl-2-oxo-2,3-dihydro-1H-benzo[e][1,4]diazepin-5-yl]-benzonitrile]", "inhibition at 10 µM": 98}, {"smiles": "COc1ccc(-c2ccc3c(c2)C(c2cccc(C#N)c2)=NCC(=O)N3C)c(OC)c1", "note": "[Example 17, 3-[7-(2,4-Dimethoxy-phenyl)-1-methyl-2-oxo-2,3-dihydro-1H-benzo[e][1,4]diazepin-5-yl]-benzonitrile]", "inhibition at 10 µM": 98}, {"smiles": "CN1C(=O)CN=C(c2cccc(C(N)=O)c2)c2cc(-c3ccccc3)ccc21", "note": "[Example 27, 3-(1-methyl-2-oxo-7-phenyl-2,3-dihydro-1H-benzo[e][1,4]diazepin-5-yl)-benzamide]", "inhibition at 10 µM": 96}, {"smiles": "CCCCCCN1C(=O)CN=C(c2cccc(C#N)c2)c2cc(-c3ccccc3OC)c(OC)cc21", "note": "[Example 35, 3-[1-Hexyl-8-methoxy-7-(2-methoxy-phenyl)-2-oxo-2,3-dihydro-1H-benzo[e][1,4]diazepin-5-yl]-benzonitrile]", "inhibition at 10 µM": 39}, {"smiles": "CCCN1C(=O)CN=C(c2cccc(C#N)c2)c2cc(-c3ccccc3OC)c(OC)cc21", "note": "[Example 37, 3-[8-Methoxy-7-(2-methoxy-phenyl)-2-oxo-1-propyl-2,3-dihydro-1H-benzo[e][1,4]diazepin-5-yl]-benzonitrile]", "inhibition at 10 µM": 45}]}]}
